Results as given in patent US4093574A, “Somatostatin analogs and intermediates thereto” (Eli Lilly and Company, priority 1977, dated 1978).
Where a SMILES comes first, the peptide text is derived from it. Bridges are numbered along the chain shown (N, C = ends). [ ]: non-standard residue; d: D form.

Assays:
[1] = tested on: growth hormone secretion; test: release of growth hormone in sodium pentobarbital-stimulated rats; format: in vivo, male Spraque-Dawley rats; conditions: serum GH at 20 minutes
Description: D-Ser^2, D-Trp^8 -somatostatin also was tested for its activity with respect to the release of growth hormone. The procedure which was employed is carried out using male Spraque-Dawley rats weighing 100-120 grams (Laboratory Supply Company, Indianapolis, Ind.). The test is a modification of the method of P. Brazeau, W. Vale, and R. Guilleman, Endocrinology, 94 184 (1974). In this assay, five groups of eight rats each were employed. Sodium pentobarbital was administered intraperitoneally to all of the rats to stimulate growth hormone secretion. One group served as the control and received only saline. Two of the groups received somatostatin, one at 2 μg./rat, subcutaneously, and the other at 50 μg./rat, subcutaneously. The other two groups received D-Ser^2, D-Trp^8 -somatostatin, one at 2 μg./rat, subcutaneously, and the other at 50 μg./rat, subcutaneously. The serum concentration of growth hormone was measured 20 minutes after simultaneous administration of sodium pentobarbital and test compound. The degree of inhibition of serum growth hormone concentration then was determined with respect to the control group, and the relative activities of D-Ser^2, D-Trp^8 -somatostatin and somatostatin itself were compared. […]

[2] = tested on: gut motility; test: action on gut motility in conscious dogs (intralumenal pressure); format: in vivo; conditions: intravenous infusion over ten minutes, pylorus, duodenum, antrum
Description: D-Ser^2, D-Trp^8 -somatostatin also was tested for its action on gut motility in conscious dogs. Three dogs having intralumenal catheters placed in the antrum, duodenum, and pylorus were used. Pressure changes in the gut lumen were recorded on a Visicorder using strain gauges and miniature light beam galvanometers. After a steady state control was established, D-Ser^2, D-Trp^8 -somatostatin was infused intravenously over a ten minute period. […] This compared to a minimum effective dose of 0.125-0.25 μg./kg.--10 minutes for somatostatin itself.

[3] = tested on: pancreatic secretion; test: inhibition of pancreatic secretion in dogs with pancreatic and total gastric fistula; format: in vivo
Description: In three dogs having both pancreatic and total gastric fistula, secretion from the pancreas was induced by infusion of […] at 2 units/kg-hr. and cholecystokinin at 0.45 unit/kg-hr., and gastric HCl by infusion of tetragastrin at 0.5 μg/kg-hr. After a steady response was established, each dog received D-Ser^2, D-Trp^8 -somatostatin for one hour at 0.2 μg/kg-hr. The peak inhibitory effect expressed as percent change over control for total protein was -76%. This corresponds to the inhibitory effect obtained by administration of about 0.6 μg/kg-hr. of somatostatin.

[4] = tested on: glucagon and insulin secretion; test: in vivo inhibition of glucagon and insulin secretion upon stimulation with L-alanine; parameters: species or system mongrel dogs; conditions: fasted dogs, intravenous infusion
Description: D-Ser^2, D-Trp^8 -somatostatin was tested for its in vivo activity in inhibiting glucagon and insulin secretion upon stimulation with L-alanine. Normal mongrel dogs of either sex were fasted overnight. Control blood samples were obtained, and then an intravenous infusion of saline, somatostatin, or D-Ser^2, D-Trp^8 -somatostatin was started. After 30 minutes, L-alanine additionally was administered intravenously for a period of 15 minutes. The infusion of saline, somatostatin, or D-Ser^2, D-Trp^8 -somatostatin was continued for 15 minutes after completion of the L-alanine infusion. From the above it was determined that the minimal effective concentration of D-Ser^2, D-Trp^8 -somatostatin is about 25 nanograms/kg./min. whereas the minimal effective concentration of somatostatin is about 100 nanograms/kg./min.

[5] = tested on: gastric HCl secretion induced by the C-terminal tetrapeptide of gastrin; test: in vivo inhibition of gastric acid secretion in dogs with chronic fistula and Heidenhain pouch
Description: D-Ser^2, D-Trp^8 -somatostatin was tested in dogs for its in vivo inhibition of gastric acid secretion. In six dogs with chronic fistula and Heidenhain pouch, gastric HCl secretion was induced by infusion of the C-terminal tetrapeptide of gastrin at 0.5 μg/kg-hr. Each dog served as its own control, receiving on a separate day only the tetrapeptide. On another day, the six dogs received the tetrapeptide, and, after one hour of steady state secretion of HCl, D-Ser^2, D-Trp^8 -somatostatin was infused at 0.20 μg/kg-hr. for one hour. Collection of gastric acid samples was continued for an additional 1.5 hours at 15 minute intervals. The samples were titrated to pH 7 with an automatic titrator. The maximal inhibitory effect of the D-Ser^2, D-Trp^8 -somatostatin was extrapolated against the dose-response curve of somatostatin, and the relative potency of the analog to that of somatostatin is expressed as percent activity. D-Ser^2, D-Trp^8 -somatostatin inhibited steady state acid secretion induced by the C-terminal tetrapeptide of gastrin by 73.5 ± 4.8% standard error of mean. This effect is equivalent to that of 0.545 μg/kg-hr. of somatostatin. Its activity relative to that of somatostatin thus is 273%.

C[C@H](N)C(=O)N[C@H](CO)C(=O)N[C@H]1CSSC[C@@H](C(=O)O)NC(=O)[C@H](CO)NC(=O)[C@H]([C@@H](C)O)NC(=O)[C@H](Cc2ccccc2)NC(=O)[C@H]([C@@H](C)O)NC(=O)[C@H](CCCCN)NC(=O)[C@@H](Cc2c[nH]c3ccccc23)NC(=O)[C@H](Cc2ccccc2)NC(=O)[C@H](Cc2ccccc2)NC(=O)[C@H](CC(N)=O)NC(=O)[C@H](CCCCN)NC1=O [D-Ser^2, D-Trp^8 -somatostatin] (H-A[dS]CKNFF[dW]KTFTSC-OH; disulfide 3-14)
inhibition of growth hormone secretion over control ([1]; 2 μg./rat subcutaneously): same effect on growth hormone secretion as somatostatin
inhibition of growth hormone secretion over control ([1]; 50 μg./rat subcutaneously): 66%
effect on intralumenal pressure [2]: initially increased the intralumenal pressure in the pylorus and then decreased it whereas the pressure in the duodenum and the antrum remained depressed throughout the test
peak inhibitory effect, percent change over control for total protein ([3]; 0.2 μg/kg-hr for one hour, pancreatic secretion induced by secretin and cholecystokinin): -76%
dose of somatostatin giving corresponding inhibitory effect on pancreatic secretion ([3]; analog at 0.2 μg/kg-hr): about 0.6 μg/kg-hr.
minimal effective concentration for inhibiting glucagon and insulin secretion [4]: about 25 nanograms/kg./min.
dose of somatostatin with equivalent effect on acid secretion ([5]; analog at 0.20 μg/kg-hr., extrapolated against dose-response curve of somatostatin): 0.545 μg/kg-hr.
inhibition of steady state acid secretion induced by the C-terminal tetrapeptide of gastrin ([5]; infused at 0.20 μg/kg-hr. for one hour, ± standard error of mean): 73.5 ± 4.8%
activity relative to that of somatostatin (gastric acid secretion) ([5]; relative potency expressed as percent activity): 273%
